pIC50: −log10 of the molar value. Read-outs that look alike come from different tables or passages of the source.
Experiments:
SD rats = assay: Evaluation of gastric emptying; assay type: in vivo, rat; settings: 5 mg/kg oral, semi-solid diet 1 hour after dosing, stomach extracted 50 minutes after meal
Description: Evaluation of gastric emptying was carried out based on the method described in Iwanaga Y, et al., Jpn J Pharmacol. 1991, 56(3), 261-269. As experimental animals, SD rats (240 to 250 g) were used and divided into groups (n=5 to 6). On the day prior to the experiment, animals were fasted for 18 hours. Test materials were formulated as suspensions thereof in 0.5% (w/v) methylcellulose and were orally administered to the animals at a dose of 5 mg/kg. 1 hour after the oral administration of the test materials, 2 mL of a semi-solid diet was orally administered to the animals. The semi-solid diet was in the form of porridge formulated by pulverizing a standard solid diet together with distilled water in a mixer. 50 minutes after the administration of the semi-solid diet, the animals were sacrificed by cervical dislocation. After carrying out an abdominal incision, the stomach was extracted from the animals. The weight of diet remaining in the stomach was measured to thereby determine the gastric emptying rate (%). The gastric emptying rate was calculated according to the following equation.
Gastric Emptying Rate (%)=(1−X/Y)*100
X: Weight of diet remaining in the stomach extracted 50 minutes after administration of meal
Y: Weight of diet remaining in the stomach extracted immediately after administration of meal

human 5-HT4 receptor = human 5-HT4 receptor (Homo sapiens (Human), UniProt Q13639); assay: Binding affinity of compounds for 5-HT4 receptor ([H3]-GR113808 radioligand, COS-7 membrane homogenates)
Sequence of human 5-HT4 receptor (Q13639 whole entry): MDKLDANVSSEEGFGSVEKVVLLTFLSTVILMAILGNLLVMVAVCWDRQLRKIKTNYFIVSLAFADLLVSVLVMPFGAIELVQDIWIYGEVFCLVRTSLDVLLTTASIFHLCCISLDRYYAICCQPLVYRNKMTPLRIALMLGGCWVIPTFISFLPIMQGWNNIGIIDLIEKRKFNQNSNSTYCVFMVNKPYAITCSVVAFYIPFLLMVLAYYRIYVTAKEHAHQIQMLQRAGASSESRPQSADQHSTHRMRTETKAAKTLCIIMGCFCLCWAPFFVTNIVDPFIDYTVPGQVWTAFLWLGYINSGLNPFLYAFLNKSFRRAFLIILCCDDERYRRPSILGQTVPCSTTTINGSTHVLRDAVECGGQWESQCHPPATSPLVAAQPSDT
Description: The binding affinity of the compounds for a human 5-HT4 receptor was assayed according to the method as disclosed in the literature [Wyngaert et al., Journal of Neurochemistry, (1997) 69, 1810-1819]. For this purpose, COS-7 cells expressing the human 5-HT4 receptor were constructed and homogenized to obtain membrane homogenates which were then used in binding assay experiments. For the binding assay, the membrane homogenates were respectively mixed and incubated with different concentrations of test materials and [H3]-GR113808 (Amersham Biosciences). The concentrations of the individual test materials were set to 4 μM, 1 μM, 0.25 μM, and 0.0625 μM, respectively, and the concentration of [H3]-GR113808 was set to 0.595 nM. After the incubation was completed, the reaction products were collected in GF/B glass fiber filters using a Packard cell harvester, and the bound radioactivity was then determined using a liquid cell scintillation counter (Packard TopCount NXT™, Perkin Elmer). Specific binding of the radioligand to the 5-HT4 receptor was calculated by subtracting the non-specific binding of the radioligand from the total radioligand binding. IC50 was calculated from % inhibition of specific binding of the radioligand to the 5-HT4 receptor, with respect to varying concentrations of the test materials.

hERG potassium channel = hERG potassium channel (Homo sapiens (Human), UniProt Q12809); assay: Binding affinity for hERG potassium channel ([H3]-Astemizole radioligand, HEK-293 membrane homogenates, MDS Pharma Service); settings: probe [H3]-Astemizole (1.5 nM), 10 μM test material, 1.5 nM [H3]-Astemizole, hERG K+ channel, HEK-293 membranes
Sequence of hERG potassium channel (Q12809 whole entry): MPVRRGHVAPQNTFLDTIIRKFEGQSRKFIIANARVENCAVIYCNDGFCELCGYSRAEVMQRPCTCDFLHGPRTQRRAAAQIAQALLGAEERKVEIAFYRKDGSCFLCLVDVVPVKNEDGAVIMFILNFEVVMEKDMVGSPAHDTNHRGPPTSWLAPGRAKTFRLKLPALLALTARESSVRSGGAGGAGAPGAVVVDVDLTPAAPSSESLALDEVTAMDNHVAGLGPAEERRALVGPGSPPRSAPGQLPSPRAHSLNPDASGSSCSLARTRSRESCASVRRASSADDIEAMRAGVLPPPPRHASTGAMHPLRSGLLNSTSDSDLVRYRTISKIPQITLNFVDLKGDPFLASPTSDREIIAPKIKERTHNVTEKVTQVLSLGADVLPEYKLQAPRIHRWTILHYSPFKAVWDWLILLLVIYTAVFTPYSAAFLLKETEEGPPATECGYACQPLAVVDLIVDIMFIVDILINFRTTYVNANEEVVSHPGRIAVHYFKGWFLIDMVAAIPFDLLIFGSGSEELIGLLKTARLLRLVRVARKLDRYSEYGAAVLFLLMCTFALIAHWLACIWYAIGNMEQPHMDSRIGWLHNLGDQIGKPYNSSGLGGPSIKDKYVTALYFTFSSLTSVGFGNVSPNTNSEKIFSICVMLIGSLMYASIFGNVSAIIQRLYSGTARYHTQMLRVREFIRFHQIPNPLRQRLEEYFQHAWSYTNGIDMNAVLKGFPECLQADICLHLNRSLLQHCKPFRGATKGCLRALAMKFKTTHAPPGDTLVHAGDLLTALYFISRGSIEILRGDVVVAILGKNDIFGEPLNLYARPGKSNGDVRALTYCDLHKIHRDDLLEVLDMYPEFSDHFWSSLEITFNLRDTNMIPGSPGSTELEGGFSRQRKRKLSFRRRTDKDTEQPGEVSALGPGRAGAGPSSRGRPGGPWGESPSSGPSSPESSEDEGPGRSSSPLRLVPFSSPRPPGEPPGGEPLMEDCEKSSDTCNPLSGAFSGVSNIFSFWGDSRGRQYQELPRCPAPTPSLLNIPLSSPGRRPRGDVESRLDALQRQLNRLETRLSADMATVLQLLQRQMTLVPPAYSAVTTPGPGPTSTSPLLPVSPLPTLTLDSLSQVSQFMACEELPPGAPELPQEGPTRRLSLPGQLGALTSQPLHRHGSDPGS
Description: The binding affinity of the compounds for the human ether-a-go-go-related gene (hERG) potassium (K+) channel which is associated with cardiac QT prolongation was assayed in MDS Pharma Service (Catalog No. 265900). Membrane homogenates were obtained from mammalian HEK-293 cells expressing the hERG potassium channel and then used in the binding assay experiment. For the binding assay experiment, the membrane homogenates were respectively mixed and incubated with 10 μM of test materials and 1.5 nM of [H3]-Astemizole (Perkin Elmer). After the incubation was completed, the radioactivity bound to the hERG K+ channel was counted. The affinity of each test material for the hERG K+ channel was calculated from % inhibition of specific binding of the radioligand to the hERG K+ channel, resulting from the action of the test material.

ICR mice = assay: Acute oral toxicity of compounds in mice; assay type: in vivo; settings: male ICR mice, single oral dose 1 g/10 mL/kg, 2 weeks observation
Description: 200 mg of each of Example compounds was triturated in 1% hydroxypropyl methyl-cellulose, and the resulting triturations were then orally administered to 5-week old male ICR mice (20 g±2 g, n=5) at a dose of 1 g/10 mL/kg. The minimum lethal dose (MLD, mg/kg) of the individual compounds was investigated by the observation of the mortality, body weight, clinical symptoms and the like of animals over the entire experimental period of 2 weeks.

[1] = inhibition of specific binding of 0.595 nM [H3]-GR113808 to human 5-HT4 receptor, COS-7 membranes, read-out: IC50

COc1cc(N)c(Cl)cc1C(=O)NCC1CCN(CCCn2cncn2)CC1 [Example 1, N-((1-(3-(1,2,4-triazol-1-yl)propyl)piperidin-4-yl)methyl)-4-amino-5-chloro-2-methoxybenzamide]
Gastric emptying rate (SD rats): 43.0% | pIC50 (human 5-HT4 receptor; [1]): 9.65 | inhibition at 10 μM (hERG potassium channel): 1% | Minimum lethal dose (MLD) (ICR mice): >1000 mg/kg

COc1cc(N)c(Cl)cc1C(=O)NCC1CCN(CCCn2cnnn2)CC1 [Example 2, N-((1-(3-(tetrazol-1-yl)propyl)piperidin-4-yl)methyl)-4-amino-5-chloro-2-methoxybenzamide]
Gastric emptying rate (SD rats): 52.8% | pIC50 (human 5-HT4 receptor; [1]): 9.79 | inhibition at 10 μM (hERG potassium channel): 4% | Minimum lethal dose (MLD) (ICR mice): >1000 mg/kg

COc1cc(N)c(Cl)cc1C(=O)NCC1CCN(CCCn2ccc3ccccc32)CC1 [Example 3, N-((1-(3-(indol-1-yl)propyl)piperidin-4-yl)methyl)-4-amino-5-chloro-2-methoxybenzamide]
Gastric emptying rate (SD rats): 45.2% | pIC50 (human 5-HT4 receptor; [1]): 10.41 | Minimum lethal dose (MLD) (ICR mice): >1000 mg/kg

COc1cc(N)c(Cl)cc1C(=O)NCC1CCN(CCCn2ccnc2C)CC1 [Example 4, N-((1-(3-(2-methylimidazol-1-yl)propyl)piperidin-4-yl)methyl)-4-amino-5-chloro-2-methoxybenzamide]
Gastric emptying rate (SD rats): 46.4% | pIC50 (human 5-HT4 receptor; [1]): 9.64 | inhibition at 10 μM (hERG potassium channel): 14% | Minimum lethal dose (MLD) (ICR mice): >1000 mg/kg

COc1cc(N)c(Cl)cc1C(=O)NCC1CCN(CCCCCn2ccc3ccccc32)CC1 [Example 5, N-((1-(5-(indol-1-yl)pentyl)piperidin-4-yl)methyl)-4-amino-5-chloro-2-methoxybenzamide]
Gastric emptying rate (SD rats): 52.0% | pIC50 (human 5-HT4 receptor; [1]): 11.30 | Minimum lethal dose (MLD) (ICR mice): >1000 mg/kg

COc1cc(N)c(Cl)cc1C(=O)NCC1CCN(CCCCCn2ccnn2)CC1 [Example 6, N-((1-(5-(1,2,3-triazol-1-yl)pentyl)piperidin-4-yl)methyl)-4-amino-5-chloro-2-methoxybenzamide]
Gastric emptying rate (SD rats): 46.0% | pIC50 (human 5-HT4 receptor; [1]): 9.99 | inhibition at 10 μM (hERG potassium channel): 8% | Minimum lethal dose (MLD) (ICR mice): >1000 mg/kg

COc1cc(N)c(Cl)cc1C(=O)NCC1CCN(CCCn2ccnn2)CC1 [Example 7, N-((1-(3-(1,2,3-triazol-1-yl)propyl)piperidin-4-yl)methyl)-4-amino-5-chloro-2-methoxybenzamide]
Gastric emptying rate (SD rats): 56.1% | pIC50 (human 5-HT4 receptor; [1]): 10.17 | inhibition at 10 μM (hERG potassium channel): 7% | Minimum lethal dose (MLD) (ICR mice): >1000 mg/kg

COc1cc(N)c(Cl)cc1C(=O)NCC1CCN(CCCn2nccn2)CC1 [Example 8, N-((1-(3-(1,2,3-triazol-2-yl)propyl)piperidin-4-yl)methyl)-4-amino-5-chloro-2-methoxybenzamide]
Gastric emptying rate (SD rats): 49.1% | pIC50 (human 5-HT4 receptor; [1]): 9.74 | inhibition at 10 μM (hERG potassium channel): 15% | Minimum lethal dose (MLD) (ICR mice): >1000 mg/kg

COc1cc(N)c(Cl)cc1C(=O)NCC1CCN(Cc2cccnc2)CC1 [Example 9, N-((1-(pyridin-3-ylmethyl)piperidin-4-yl)methyl)-4-amino-5-chloro-2-methoxybenzamide]
Gastric emptying rate (SD rats): 51.2% | pIC50 (human 5-HT4 receptor; [1]): 9.57 | inhibition at 10 μM (hERG potassium channel): 6% | Minimum lethal dose (MLD) (ICR mice): >1000 mg/kg

COc1cc(N)c(Cl)cc1C(=O)NCC1CCN(Cc2cn(C)c3ccccc23)CC1 [Example 10, N-((1-((1-methylindol-3-yl)methyl)piperidin-4-yl)methyl)-4-amino-5-chloro-2-methoxybenzamide]
Gastric emptying rate (SD rats): 59.1% | pIC50 (human 5-HT4 receptor; [1]): 10.12 | Minimum lethal dose (MLD) (ICR mice): >1000 mg/kg

COc1cc(N)c(Cl)cc1C(=O)NCC1CCN(Cc2ncc[nH]2)CC1 [Example 11, N-((1-(imidazol-2-ylmethyl)piperidin-4-yl)methyl)-4-amino-5-chloro-2-methoxybenzamide]
Gastric emptying rate (SD rats): 43.1% | pIC50 (human 5-HT4 receptor; [1]): 9.34 | inhibition at 10 μM (hERG potassium channel): 21% | Minimum lethal dose (MLD) (ICR mice): >1000 mg/kg

COc1cc(N)c(Cl)cc1C(=O)NCC1CCN(Cc2cccn2C)CC1 [Example 12, N-((1-((1-methylpyrrol-2-yl)methyl)piperidin-4-yl)methyl)-4-amino-5-chloro-2-methoxybenzamide]
Gastric emptying rate (SD rats): 62.0% | pIC50 (human 5-HT4 receptor; [1]): 9.38 | inhibition at 10 μM (hERG potassium channel): 32% | Minimum lethal dose (MLD) (ICR mice): >1000 mg/kg

COc1cc(N)c(Cl)cc1C(=O)NCC1CCN(Cc2ccc(F)cc2)CC1 [Example 13, N-((1-(4-fluorobenzyl)piperidin-4-yl)methyl)-4-amino-5-chloro-2-methoxybenzamide]
Gastric emptying rate (SD rats): 52.3% | pIC50 (human 5-HT4 receptor; [1]): 9.87 | inhibition at 10 μM (hERG potassium channel): 52% | Minimum lethal dose (MLD) (ICR mice): >1000 mg/kg

COc1cc(N)c(Cl)cc1C(=O)NCC1CCN(Cc2ccc(O)cc2)CC1 [Example 14, N-((1-(4-hydroxybenzyl)piperidin-4-yl)methyl)-4-amino-5-chloro-2-methoxybenzamide]
Gastric emptying rate (SD rats): 42.1% | pIC50 (human 5-HT4 receptor; [1]): 9.43 | inhibition at 10 μM (hERG potassium channel): 40% | Minimum lethal dose (MLD) (ICR mice): >1000 mg/kg

COc1cc(N)c(Cl)cc1C(=O)NCC1CCN(CCc2c[nH]c3ccccc23)CC1 [Example 15, N-((1-(2-(indol-3-yl)ethyl)piperidin-4-yl)methyl)-4-amino-5-chloro-2-methoxybenzamide]
Gastric emptying rate (SD rats): 41.3% | pIC50 (human 5-HT4 receptor): 11.70 | Minimum lethal dose (MLD) (ICR mice): >1000 mg/kg
